Results from patent US8153643B2, “Quinazoline derivatives” (AstraZeneca AB, priority 2004, dated 2012).

Experiments:
phospho-Tyr751 PDGFRβ = target: T1, phospho-Tyr751 PDGFRβ (Homo sapiens, UniProt P09619); assay: In vitro phospho-Tyr751 PDGFRβ ELISA assay; type: cell-based; details: Test (b); MG63 osteosarcoma cells stimulated with PDGFBB; read-out: IC50 versus phospho-Tyr751 PDGFRβ
T1 construct: phosphorylation of PDGFR expressed on MG63 osteosarcoma cells; endogenous in cells; host or cells: MG63 osteosarcoma cells
Procedure: (b) In Vitro Phospho-Tyr751 PDGFRβ ELISA Assay
This assay uses a conventional EISA method to determine the ability of test compounds to inhibit phosphorylation of tyrosine in PDGFRβ.
An MG63 osteosarcoma cell line [American Type Culture Collection (ATCC) CCL 1427] was routinely maintained at 37° C. with 7.5% CO2 in Dulbecco's modified Eagle's growth medium (DMEM; Sigma-Aldrich; Catalogue No. D6546) containing 10% foetal calf serum (FCS; Sigma-Aldrich; Catalogue No. F7524) and 2 mM L-glutamine (Invitrogen Ltd., Paisley, UK; Catalogue No. 25030-024).
For the assay, the cells were detached from the culture flask using a trypsin/ethylenediaminetetraacetic acid (EDTA) mixture (Invitrogen Ltd.; Catalogue No. 15400-054) and resuspended in test media comprising DMEM without phenol red (Sigma-Aldrich; Catalogue No. D5921) containing 1% charcoal-stripped foetal calf serum (FCS) (Sigma-Aldrich; Catalogue No. F7524, stripped by incubation with dextran-coated activated charcoal at 55° C. for 30 minutes with continuous stirring followed by removal of the charcoal by centrifugation and filter sterilisation) and 2 mM L-glutamine (Invitrogen Ltd., Catalogue No. 25030-024) to give 6×10^4 cells per ml. Aliquots (100 μl) were seeded into each of the wells of columns 2-12 (excluding column 1) and rows B-G (excluding rows A and H) of a clear 96 well tissue culture plate (Corning Life Sciences, Koolhovenlaan, The Netherlands; Catalogue No. 3595) to give a density of about 6000 cells per well. Aliquots (100 μl) of culture media were placed in the outer wells to minimise edge effects. The cells were incubated overnight at 37° C. with 7.5% CO2 to allow the cells to adhere to the wells.
Test compounds were prepared as 10 mM stock solutions in DMSO and serially diluted as required with test media to give a range of concentrations. Aliquots (50 μl) of each compound concentration were added to the cells in each well. Control cells received a dilution of DMSO only. The cells were incubated for 90 minutes at 37° C. with 7.5% CO2.
The resultant cells were stimulated with PDGFBB using the following procedure. A lyophilised powder of PDGFBB, (Sigma-Aldrich; Catalogue No. P4306) was mixed with 4 mM aqueous hydrochloric acid containing 0.1% filter-sterilised BSA to provide a stock solution of 10 μg/ml of PDGFBB. A dilution of this stock solution into test medium provided a 200 ng/ml PDGFBB solution. Aliquots thereof (50 μl) were added to compound treated cells and to one set of control wells to give the “maximum” control. The “minimum” controls received media only. The cells were incubated at 37° C. with 7.5% CO2 for 5 minutes. […]

KDR tyrosine kinase = target: T2, KDR tyrosine kinase (Homo sapiens, UniProt P35968); assay: In vitro enzyme assay (ELISA), KDR; type: biochemical; details: Test (a); ATP 8 μM; read-out: IC50 versus KDR tyrosine kinase
T2 construct: encoding most of the cytoplasmic domain, commencing with methionine 806 and including the termination codon; made in house; host or cells: Sf9 insect cells (baculovirus)
Procedure: (§1) (a) In Vitro Enzyme Assays
(§2) The ability of test compounds to inhibit the phosphorylation of a tyrosine containing polypeptide substrate by the tyrosine kinase enzymes PDGFRα, PDGFRβ and KDR was assessed using conventional ELISA assays.
(§3) DNA encoding the PDGFRα, PDGFRβ or KDR receptor cytoplasmic domains may be obtained by total gene synthesis (International Biotechnology Lab., 1987, 5(3), 19-25) or by cloning. The DNA fragments may be expressed in a suitable expression system to obtain polypeptide with tyrosine kinase activity. For example, PDGFRα, PDGFRβ and KDR receptor cytoplasmic domains, obtained by expression of recombinant protein in insect cells, can be shown to display intrinsic tyrosine kinase activity. In the case of the VEGF receptor KDR (Genbank Accession No. L04947), a DNA fragment encoding most of the cytoplasmic domain, commencing with methionine 806 and including the termination codon may be cloned into a baculovirus transplacement vector [for example pAcYM1 (see The Baculovirus Expression System: A Laboratory Guide, L. A. King and R. D. Possee, Chapman and Hall, 1992) or pAc360 or pBlueBacHis (available from Invitrogen Corporation)]. This recombinant construct may be co-transfected into insect cells [for example Spodoptera frugiperda 21 (Sf21) or Spodoptera frugiperda 9 (Sf9)] with viral DNA (for example Pharmingen BaculoGold) to prepare recombinant baculovirus. Details of the methods for the assembly of recombinant DNA molecules and the preparation and use of recombinant baculovirus can be found in standard texts, for example Sambrook et al., 1989, Molecular cloning—A Laboratory Manual, 2nd edition, Cold Spring Harbour Laboratory Press and O'Reilly et al., 1992, Baculovirus Expression Vectors—A Laboratory Manual, W.H. Freeman and Co, New York).
For expression, Sf9 cells were infected with plaque-pure KDR recombinant virus and harvested 48 hours later. […]

PDGFRβ tyrosine kinase = target: T3, PDGFRβ tyrosine kinase (Homo sapiens, UniProt P09619); assay: In vitro enzyme assay (ELISA), PDGFRβ; type: biochemical; details: Test (a); ATP 2.8 μM; read-out: IC50 versus PDGFRβ tyrosine kinase
T3 construct: PDGFRα, PDGFRβ and KDR receptor cytoplasmic domains, obtained by expression of recombinant protein in insect cells; purchased Upstate Biotechnology Inc. 14-463; host or cells: Sf9 insect cells
Procedure: as §1, §2
as §3, with “York). […]” for “York).”

PDGFRα tyrosine kinase = target: T4, PDGFRα tyrosine kinase (Homo sapiens, UniProt P16234); assay: In vitro enzyme assay (ELISA), PDGFRα; type: biochemical; details: Test (a); ATP 14 μM; read-out: IC50 versus PDGFRα tyrosine kinase
T4 construct: PDGFRα, PDGFRβ and KDR receptor cytoplasmic domains, obtained by expression of recombinant protein in insect cells; purchased Upstate Biotechnology Inc. 14-467; host or cells: Sf9 insect cells
Procedure: as §1, §2
as §3, with “York). […]” for “York).”

[1] = system: dermatofibrosarcoma protruberans cell cultures; details: Cancer Research, 2001, 61, 5778-5783; cited from earlier work
[2] = system: human glioblastoma lines U343 and U87; details: injection into the brains of nude mice of U343 and U87; Cancer Research, 2000, 60, 5143-5150; cited from earlier work
PDGF receptor kinase = details: Nature Reviews, 2002, 1, 493-502; Cancer Research, 1996, 56, 100-104; cited from earlier work

T1 sequence (P09619 33-1106): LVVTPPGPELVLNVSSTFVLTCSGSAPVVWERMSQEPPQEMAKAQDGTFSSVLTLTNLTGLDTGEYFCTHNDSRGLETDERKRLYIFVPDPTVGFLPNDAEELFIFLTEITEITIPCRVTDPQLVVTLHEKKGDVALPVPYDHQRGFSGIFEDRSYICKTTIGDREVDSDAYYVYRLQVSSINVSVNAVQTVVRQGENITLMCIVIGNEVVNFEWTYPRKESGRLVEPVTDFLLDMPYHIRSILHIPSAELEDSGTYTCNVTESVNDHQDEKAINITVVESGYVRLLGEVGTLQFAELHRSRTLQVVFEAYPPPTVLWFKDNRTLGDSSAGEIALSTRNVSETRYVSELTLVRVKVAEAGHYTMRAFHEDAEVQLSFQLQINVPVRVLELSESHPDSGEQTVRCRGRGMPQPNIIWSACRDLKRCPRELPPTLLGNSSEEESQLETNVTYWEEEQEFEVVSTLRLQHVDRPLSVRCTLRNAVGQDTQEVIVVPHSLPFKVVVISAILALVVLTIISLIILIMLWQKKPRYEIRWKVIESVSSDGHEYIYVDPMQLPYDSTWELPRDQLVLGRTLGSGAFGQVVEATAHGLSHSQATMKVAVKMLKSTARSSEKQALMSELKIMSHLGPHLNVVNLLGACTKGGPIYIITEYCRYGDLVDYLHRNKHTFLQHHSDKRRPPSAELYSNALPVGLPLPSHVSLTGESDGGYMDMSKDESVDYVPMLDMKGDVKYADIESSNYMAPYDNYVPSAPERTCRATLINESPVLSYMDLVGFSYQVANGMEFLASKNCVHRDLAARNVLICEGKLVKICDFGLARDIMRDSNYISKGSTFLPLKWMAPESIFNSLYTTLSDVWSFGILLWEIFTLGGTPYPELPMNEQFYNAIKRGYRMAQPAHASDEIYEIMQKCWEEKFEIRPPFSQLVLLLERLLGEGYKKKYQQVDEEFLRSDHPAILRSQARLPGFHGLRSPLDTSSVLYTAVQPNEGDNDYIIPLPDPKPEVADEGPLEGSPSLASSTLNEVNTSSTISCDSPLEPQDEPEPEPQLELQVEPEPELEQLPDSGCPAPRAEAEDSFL
T2 sequence (P35968 786-1356 limits assumed): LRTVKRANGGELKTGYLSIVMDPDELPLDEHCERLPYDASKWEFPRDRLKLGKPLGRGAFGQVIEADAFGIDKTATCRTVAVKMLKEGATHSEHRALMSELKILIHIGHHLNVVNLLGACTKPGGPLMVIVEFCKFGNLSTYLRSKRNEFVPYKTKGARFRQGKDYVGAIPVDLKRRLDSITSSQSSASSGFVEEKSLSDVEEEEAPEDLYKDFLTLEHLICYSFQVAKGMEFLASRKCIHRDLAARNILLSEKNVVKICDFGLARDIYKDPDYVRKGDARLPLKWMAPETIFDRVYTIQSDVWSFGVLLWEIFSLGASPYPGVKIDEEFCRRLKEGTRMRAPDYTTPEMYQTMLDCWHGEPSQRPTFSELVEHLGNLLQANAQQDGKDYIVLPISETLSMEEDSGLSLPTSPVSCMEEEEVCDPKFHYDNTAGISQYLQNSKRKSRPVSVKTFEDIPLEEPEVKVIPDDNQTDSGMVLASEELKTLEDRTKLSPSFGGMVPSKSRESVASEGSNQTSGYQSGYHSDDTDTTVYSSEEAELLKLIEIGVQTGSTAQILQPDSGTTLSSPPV
T4 sequence (P16234 550-1089 limits assumed): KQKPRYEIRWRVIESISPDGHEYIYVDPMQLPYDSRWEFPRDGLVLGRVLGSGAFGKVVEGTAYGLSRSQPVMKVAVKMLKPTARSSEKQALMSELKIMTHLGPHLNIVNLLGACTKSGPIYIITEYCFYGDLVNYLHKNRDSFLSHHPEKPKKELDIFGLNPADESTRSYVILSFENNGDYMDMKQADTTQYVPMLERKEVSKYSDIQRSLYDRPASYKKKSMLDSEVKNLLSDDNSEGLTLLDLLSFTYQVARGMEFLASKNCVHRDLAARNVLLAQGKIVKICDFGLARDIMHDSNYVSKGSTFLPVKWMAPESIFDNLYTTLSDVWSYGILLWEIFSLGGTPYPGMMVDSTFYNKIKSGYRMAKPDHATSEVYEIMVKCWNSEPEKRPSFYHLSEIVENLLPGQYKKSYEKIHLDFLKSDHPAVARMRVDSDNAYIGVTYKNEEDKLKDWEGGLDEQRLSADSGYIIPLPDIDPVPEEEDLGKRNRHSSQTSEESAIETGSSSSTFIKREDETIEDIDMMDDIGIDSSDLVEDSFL
T3 sequence (P09619 554-1106 limits assumed): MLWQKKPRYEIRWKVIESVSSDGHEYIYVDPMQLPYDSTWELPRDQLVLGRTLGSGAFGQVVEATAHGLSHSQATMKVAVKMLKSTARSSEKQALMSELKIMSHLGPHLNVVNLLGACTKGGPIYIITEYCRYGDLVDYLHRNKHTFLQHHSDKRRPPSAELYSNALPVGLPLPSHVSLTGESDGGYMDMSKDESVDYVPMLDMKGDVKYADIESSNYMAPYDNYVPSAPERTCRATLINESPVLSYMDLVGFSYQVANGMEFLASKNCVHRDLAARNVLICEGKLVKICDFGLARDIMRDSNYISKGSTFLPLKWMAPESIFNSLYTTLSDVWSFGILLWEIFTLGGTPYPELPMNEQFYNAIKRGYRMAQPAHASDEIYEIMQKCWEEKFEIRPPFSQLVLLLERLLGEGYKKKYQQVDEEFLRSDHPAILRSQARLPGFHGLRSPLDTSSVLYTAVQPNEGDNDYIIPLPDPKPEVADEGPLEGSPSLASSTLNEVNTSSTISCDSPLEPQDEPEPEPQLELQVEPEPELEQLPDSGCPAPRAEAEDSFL

Row | Compound | IC50 (phospho-Tyr751 PDGFRβ) [nM] | IC50 (KDR tyrosine kinase) [nM] | IC50 (PDGFRβ tyrosine kinase) [nM] | IC50 (PDGFRα tyrosine kinase) [nM] | in vivo growth of dermatofibrosarcoma protruberans cell cultures [1] | growth of glioblastoma tumours [2] | PDGF receptor kinase activity (PDGF receptor kinase)
1 | COc1cc2ncnc(Oc3ccc(CC(=O)Nc4nc(C)cs4)cc3)c2cc1OC [Compound 17 within Example 9, N-(4-methylthiazol-2-yl)-2-[4-(6,7-dimethoxyquinazolin-4-yloxy)phenyl]acetamide] | ~2 |  | ~100 | ~300 |  |  | 
2 | COc1cccc(NC(=O)Cc2ccc(Oc3ncnc4cc(OC)c(OC)cc34)cc2)c1 [Example 1, N-(3-methoxyphenyl)-2-[4-(6,7-dimethoxyquinazolin-4-yloxy)phenyl]acetamide] | ~1 | ~1 | ~60 | ~250 |  |  | 
3 | Cc1ccc(NC(=O)c2ccc(CN3CCN(C)CC3)cc2)cc1Nc1nccc(-c2cccnc2)n1 [imatinib] |  |  |  |  | inhibits the in vivo growth | inhibits the growth | inhibit PDGF receptor kinase activity

Further lines, with some results ahead:

Row | IC50 (phospho-Tyr751 PDGFRβ) [nM] | IC50 (KDR tyrosine kinase) [nM] | IC50 (PDGFRβ tyrosine kinase) [nM] | IC50 (PDGFRα tyrosine kinase) [nM] | Compound | in vivo growth of dermatofibrosarcoma protruberans cell cultures [1] | growth of glioblastoma tumours [2] | PDGF receptor kinase activity (PDGF receptor kinase)
4 | ~1 | ~10 |  |  | COc1cc2ncnc(Oc3ccc(CC(=O)Nc4cccc(N(C)C)n4)cc3)c2cc1OC [Compound 4 within Example 10, N-(6-dimethylaminopyridin-2-yl)-2-[4-(6,7-dimethoxyquinazolin-4-yloxy)phenyl]acetamide] |  |  | 
5 | ~0.5 | ~10 | ~300 | ~400 | COc1cc2ncnc(Oc3ccc(CC(=O)Nc4ccc(N(C)C)cn4)cc3)c2cc1OC [Example 6, N-(5-dimethylaminopyridin-2-yl)-2-[4-(6,7-dimethoxyquinazolin-4-yloxy)phenyl]acetamide] |  |  | 
